# Laboratory results as given in patent EP0158545A1, “[Alpha-(alkylaminomethyl)-benzylthio]-acetic-acid derivatives, process for their preparation and their therapeutic use” (priority 1984, dated 1985).
# Tests used:
# souris mâle [1] = test: Complementary neuropsychopharmacological tests by gastric route, mouse; assay type: in vivo; details: voie gastrique, 20 ml/kg in distilled water
# Description: Des essais complémentaires ont été entrepris, le CRL 41 190 en solution dans de l'eau distillée étant administré par voie gastrique sous un volume de 20 ml/kg chez la souris mâle.
# souris [2] = test: Asphyxic anoxia (gallamine triethiodide), mouse; assay type: in vivo; details: product I.P. half an hour before triiodoéthylate de gallamine 32 mg/kg I.P.
# rats = test: Interaction with amphetamine (stereotypies), rat; assay type: in vivo; details: amphétamine 2 mg/kg I.P. half an hour after product, doses de 8 et 32 mg/kg
# Description: L'amphétamine (2 mg/kg) est injectée par voie intrapéritonéale à des lots de 6 rats, une demi -heure après l'administration de CRL 41 190.
# souris [3] = test: Four-plate test, traction and electroshock, mouse; assay type: in vivo
# Description: Le test est pratiqué sur des lots de 10 souris 0,50 h après l'administration du produit à étudier.
# souris [4] = test: Intergroup aggressiveness, mouse; assay type: in vivo; details: half an hour after I.P., 10 minutes, plus forte dose utilisée (64 mg/kg)
# Description: Après avoir séjourné pendant 3 semaines dans chacune des moitiés d'une cage séparées par une cloison opaque, des groupes de 3 souris reçoivent le CRL 41 190. Une demi-heure plus tard, les deux groupes d'une même cage sont réunis par retrait de la cloison et on note le nombre de combats qui surviennent en 10 minutes.
# souris [5] = details: half an hour after I.P., dépression de 600 mmHg
# rat [6] = test: Interaction with apomorphine, rat; assay type: in vivo; details: product I.P. 0,50 h before s.c. 0,5 mg/kg apomorphine
# souris [7] = test: Global behaviour and reactivities, mouse; assay type: in vivo; details: I.P.
# Description: (§1) On a résumé ci-après les résultats des essais neuropsychopharmacologiques qui ont été entrepris avec les produits préférés selon l'invention, le CRL 41 190 (Ex 1) et le CRL 41 214 (Ex 3). Dans ce résumé, les deux produits à tester mis en solution dans de l'eau distillée ont été administrés, sauf indiction contraire, par voie intrapéritonéale sous un volume de 20 ml/kg chez la souris mâle et sous un volume de 5 ml/kg chez le rat mâle. […]
# (§2) Des lots de trois animaux sont observés avant puis 0,25 h, 0,5, h, 1 h, 2 h, 3 h et 24 h après administration de CRL 41 190.
# souris [8] = test: Spontaneous motility (actimeter), mouse; assay type: in vivo; details: souris, 0,5 h after I.P., recorded 30 minutes; plus forte dose utilisée (64 mg/kg)
# souris mâle [9] = details: mouse, in vivo, ip
# Description: as §1
# La DL-0 (dose maximale non mortelle) du CRL 41 190 est supérieure à 128 mg/kg par voie I.P. chez la souris mâle, et la DL-30 est de l'ordre de 256 mg/kg.
# Par voie I.P. chez la souris mâle, la DL-0 est supérieure à 256 mg/kg.
# rat [10] = test: Global behaviour and reactivities, rat; assay type: in vivo; details: I.P.
# Description: as §1, §2
# souris [11] = test: Interaction with reserpine (hypothermia, ptosis), mouse; assay type: in vivo
# Description: Quatre heures après l'injection intrapéritonéale de 2,5 mg/kg de réserpine, des lots de 12 souris reçoivent le CRL 41 190. On étudie l'influence du produit à tester sur l'hypothermie et le ptôsis réserpiniques.
# souris [12] = test: Interaction with apomorphine, mouse; assay type: in vivo; details: product I.P. 0,50 h before s.c. apomorphine
# Description: • 1°) chez la souris • Des lots de 6 souris reçoivent le produit à étudier 0,50 h avant une injection sous-cutanée de 1 mg/kg ou 16 mg/kg d'apomorphine.
# souris [13] = test: Behavioural despair (forced immersion), mouse; assay type: in vivo; details: half an hour after I.P., plus forte dose utilisée (64 mg/kg)
# Excerpt: On note la durée totale d'immobilité entre la 2ème et la 6ème minutes suivant l'immersion.
# l'homme = test: Clinical treatment of depression, oral administration; assay type: in vivo
# souris [14] = test: Interaction with barbital (sleep duration), mouse; assay type: in vivo; details: barbital 220 mg/kg I.P. half an hour after product, plus forte dose utilisée (64 mg/kg)
# souris [15] = test: Motility reduced by habituation to the enclosure, mouse; assay type: in vivo; details: I.P., after 18 heures in actimeter
# souris [16] = test: Interaction with oxotremorine, mouse; assay type: in vivo
# [17] = souris, 0,50 h after I.P. administration
# [18] = oxotrémorine 0,5 mg/kg I.P., dose de 64 mg/kg
compound,measurement,setting,value
"CC(C)(C)NCC(SCC(N)=O)c1ccccc1 (racemic) [CRL 41 190, chlorhydratede [α-(tertiobutylamino-méthyl)-benzyl]-thioacétamide]",overall CNS profile by gastric route,souris mâle [1],"agit essentiellement en tant qu'antidépresseur avec, à fortes doses, une composante éveillante et stimulante très modérée"
same,délai d'apparition des convulsions et de la mort consécutives à une anoxie asphyxique,souris [2],ne modifie pas le délai d'apparition des convulsions et de la mort
same,durée des stéréotypies amphétaminiques,rats,augmente nettement la durée des stéréotypies amphétaminiques
same,effets convulsivants de l'électrochoc,souris [3]; [17],ne modifie pas les effets convulsivants
same,incapacité motrice (traction),souris [3]; [17],ne provoque pas d'incapacité motrice majeure
same,nombre de passages punis (test des quatre plaques),souris [3]; [17],n'entraîne pas d'augmentation du nombre de passages punis
same,effets létaux de l'électrochoc,"souris [3]; souris, I.P., dose de 64 mg/kg","aggrave, à la dose de 64 mg/kg, les effets létaux de l'électrochoc"
same,nombre de combats,souris [4],augmente modérément le nombre de combats
same,récupération motrice après anoxie hypobare aigue,souris [5],n'entraîne pas d'amélioration de la récupération motrice
same,stéréotypies induites par l'apomorphine,rat [6],laisse inchangées les stéréotypies induites par l'apomorphine
same,comportement global et réactivités,"souris [7]; dose de 1 mg/kg, observed 0,25 h to 24 h",aùcune modification nette du comportement et et des réactivités
same,comportement global et réactivités,souris [7]; dose de 64 mg/kg,"une augmentation de la réaction de peur pendant 1 h et de la réactivité au toucher de 0,5 h à 1 h, une sédation, et, une mydriase faible pendant 1 h"
same,comportement global et réactivités,souris [7]; doses de 4 et 16 mg/kg,"une augmentation de la réaction de peur, d'υne part, et une augmentation de la réactivité au toucher pendant 0,5 h"
same,activité motrice spontanée,souris [8],ne modifie pratiquement pas l'activité motrice spontanée de la souris
same,DL-0 (dose maximale non mortelle),souris mâle [9],> 128 mg/kg
same,DL-30,souris mâle [9],~256 mg/kg
same,comportement global et réactivités,rat [10]; dose de 32 mg/kg,une mydriase pendant 1 h
same,comportement global et réactivités,"rat [10]; doses de 0,5 mg/kg à 8 mg/kg","un comportement, des réactivités, une variation de la température rectale, et une variation du diamètre pupillaire sensiblement comparables à ceux du lot témoin"
same,hypothermie réserpinique,"souris [11]; product 4 h after réserpine 2,5 mg/kg I.P., dès la dose de 4 mg/kg",antagonise l'hypothermie réserpinique
same,ptôsis réserpinique,"souris [11]; réserpine 2,5 mg/kg I.P., 16 mg/kg et 64 mg/kg, from half an hour after administration",antagonise faiblement le ptôsis réserpinique
same,hypothermie réserpinique,"souris [11]; réserpine 2,5 mg/kg I.P., deux plus fortes doses (16 mg/kg et 64 mg/kg)",Cet antagonisme est très net
same,comportements de verticalisation et stéréotypies (apomorphine),souris [12],ne sont pratiquement pas modifiés
same,hypothermie induite par 16 mg/kg d'apomorphine,souris [12]; dès la dose de 1 mg/kg,antagonise dès la dose de 1 mg/kg l'hypothermie induite par 16 mg/kg d'apomorphine
same,hypothermie induite par 1 mg/kg d'apomorphine,souris [12]; plus forte dose utilisée (64 mg/k),s'oppose à l'hypothermie induite par 1 mg/kg d'apomorphine
same,durée de l'immobilité de la souris placée en immersion forcée,souris [13],diminue nettement la durée de l'immobilité de la souris placée en immersion forcée
same,traitement des dépressions chez l'homme,"l'homme; administration orale, gélules ou comprimés 25 mg ou 50 mg, 1 à 2 prises par jour, deux à trois semaines",bons résultats
same,propriétés antidépressives chez les personnes agées,"l'homme; clinical, oral",se manifestaient de façon très bénéfique chez les personnes agées
same,durée du sommeil barbiturique,souris [14],diminue la durée du sommeil barbiturique
same,reprise d'activité motrice chez la souris habituée à son enceinte,souris [15],n'entraîne pas de reprise d'activité motrice chez la souris habituée à son enceinte
same,signes de stimulation cholinergique périphérique dûs à l'oxotrémorine,"souris [16]; oxotrémorine 0,5 mg/kg I.P., aux autres doses (below 64 mg/kg)",ne modifie pratiquement pas les signes de stimulation cholinergique péripherique dûs à l'oxotrémorine
same,intensité des tremblements dûs à l'oxotrémorine,souris [16]; [18],diminue faiblement l'intensité des tremlblements dûs à l'oxotrémorine
same,salivation (symptômes cholinergiques périphériques),souris [16]; [18],"diminue faiblement la salivation entre les 1,5 h et 2 h qui suivent son administration"
same,hypothermie induite par l'oxotrémorine,"souris [16]; oxotrémorine 0,5 mg/kg I.P., doses de 4 mg/kg, 16 mg/kg et surtout 64 mg/kg",Cet antagonisme est net
same,hypothermie induite par l'oxotrémorine,"souris [16]; product half an hour before oxotrémorine 0,5 mg/kg I.P., dès la dose de 1 mg/kg",s'oppose à l'hypothermie induite par l'oxotrémorine
